The text below walks through data of ChEMBL document CHEMBL5465560, “Selectivity Literature for EUbOPEN Chemogenomic Library” (2024).

Assay [1] has as its target T1, Bone morphogenetic protein receptor type-2 (Homo sapiens) (UniProt Q13873).
T1 sequence (whole entry): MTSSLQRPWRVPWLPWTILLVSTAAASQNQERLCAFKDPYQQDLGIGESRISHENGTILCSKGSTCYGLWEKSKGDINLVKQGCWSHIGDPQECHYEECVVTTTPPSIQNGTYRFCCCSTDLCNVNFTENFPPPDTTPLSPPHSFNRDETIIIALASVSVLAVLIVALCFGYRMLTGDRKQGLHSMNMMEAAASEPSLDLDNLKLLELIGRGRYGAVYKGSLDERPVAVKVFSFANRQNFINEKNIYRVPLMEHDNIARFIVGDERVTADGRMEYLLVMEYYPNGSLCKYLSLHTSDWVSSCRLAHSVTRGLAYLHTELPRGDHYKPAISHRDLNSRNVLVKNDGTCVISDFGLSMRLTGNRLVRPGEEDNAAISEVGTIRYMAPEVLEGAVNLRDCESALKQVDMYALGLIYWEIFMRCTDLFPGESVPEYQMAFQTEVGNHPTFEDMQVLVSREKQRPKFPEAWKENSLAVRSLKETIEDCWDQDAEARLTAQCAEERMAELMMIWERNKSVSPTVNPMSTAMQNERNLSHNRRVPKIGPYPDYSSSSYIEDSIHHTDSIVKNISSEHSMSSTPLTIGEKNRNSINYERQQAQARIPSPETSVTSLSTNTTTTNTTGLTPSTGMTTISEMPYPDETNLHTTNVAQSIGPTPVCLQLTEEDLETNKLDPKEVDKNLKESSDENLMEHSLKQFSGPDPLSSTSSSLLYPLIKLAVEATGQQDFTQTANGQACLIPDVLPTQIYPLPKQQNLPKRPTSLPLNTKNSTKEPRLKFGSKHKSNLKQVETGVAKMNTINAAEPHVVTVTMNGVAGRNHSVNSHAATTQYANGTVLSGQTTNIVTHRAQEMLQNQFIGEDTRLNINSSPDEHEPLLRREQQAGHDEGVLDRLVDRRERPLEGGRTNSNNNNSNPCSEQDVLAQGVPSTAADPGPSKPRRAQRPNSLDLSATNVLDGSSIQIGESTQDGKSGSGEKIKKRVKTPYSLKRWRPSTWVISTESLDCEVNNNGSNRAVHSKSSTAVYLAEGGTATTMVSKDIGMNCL
In words: Selectivity interaction (Ambit KINOMEscan and KiNATiv profiling in Jurkat cells) EUB0000090b BMPR2. The following applies: at 1 µM. Type of assay: cell-based.

Assay [2] addresses Serine/threonine-protein kinase MRCK beta (Homo sapiens) (UniProt Q9Y5S2). In words: Selectivity interaction (KinomeScan (DiscoverX)) EUB0000229b CDC42BPB. The following applies: at 10 µM.
Assay [3] addresses T2, Serine/threonine-protein kinase BRSK1 (Homo sapiens) (UniProt Q8TDC3).
T2 sequence (whole entry): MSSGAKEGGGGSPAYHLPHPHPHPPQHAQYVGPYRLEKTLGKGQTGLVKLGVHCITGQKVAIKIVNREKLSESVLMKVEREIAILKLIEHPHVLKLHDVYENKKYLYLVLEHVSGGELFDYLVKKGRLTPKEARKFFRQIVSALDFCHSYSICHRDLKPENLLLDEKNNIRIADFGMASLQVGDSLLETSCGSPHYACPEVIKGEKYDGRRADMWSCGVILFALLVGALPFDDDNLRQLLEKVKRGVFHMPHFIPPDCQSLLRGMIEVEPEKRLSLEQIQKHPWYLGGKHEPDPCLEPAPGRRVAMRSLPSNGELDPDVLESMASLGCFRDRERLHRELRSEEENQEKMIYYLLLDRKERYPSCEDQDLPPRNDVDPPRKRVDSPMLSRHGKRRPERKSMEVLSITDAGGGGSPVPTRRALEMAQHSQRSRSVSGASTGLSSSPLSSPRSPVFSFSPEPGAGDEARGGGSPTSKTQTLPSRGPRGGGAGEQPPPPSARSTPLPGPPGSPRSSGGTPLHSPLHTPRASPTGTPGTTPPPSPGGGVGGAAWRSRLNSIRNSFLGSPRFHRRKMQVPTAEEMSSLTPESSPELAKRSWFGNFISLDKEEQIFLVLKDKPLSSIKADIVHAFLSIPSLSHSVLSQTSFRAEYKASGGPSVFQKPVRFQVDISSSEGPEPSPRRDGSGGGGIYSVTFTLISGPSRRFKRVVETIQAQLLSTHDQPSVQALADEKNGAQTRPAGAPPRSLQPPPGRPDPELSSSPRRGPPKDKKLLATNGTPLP
Kind of assay: Selectivity interaction (KinomeScan (DiscoverX)) EUB0000655a BRSK1. The note with it: at 10 µM.

Assay [4] concerns the target Tyrosine-protein kinase CSK (Homo sapiens) (UniProt P41240). In words: Selectivity interaction (ActivX KiNativ screen (ex vivo kinase selectivity in human PBMCs)) EUB0001619a CSK. Format: cell-based. The following applies: PBMC, at 1 µM.
Assay [5] concerns the target Calcium/calmodulin-dependent protein kinase kinase 1 (Homo sapiens) (UniProt Q8N5S9). Kind of assay: Selectivity interaction (Kinase panel (Invitrogen)) EUB0000639a CAMKK1. The note with it: at 200 nM.
The target of assay [6] is Calcium/calmodulin-dependent protein kinase type II subunit delta (Homo sapiens) (UniProt Q13557). The following applies: at 10 µM.
Calcium/calmodulin-dependent protein kinase type II subunit delta (Homo sapiens), sequence (Q13557 whole entry): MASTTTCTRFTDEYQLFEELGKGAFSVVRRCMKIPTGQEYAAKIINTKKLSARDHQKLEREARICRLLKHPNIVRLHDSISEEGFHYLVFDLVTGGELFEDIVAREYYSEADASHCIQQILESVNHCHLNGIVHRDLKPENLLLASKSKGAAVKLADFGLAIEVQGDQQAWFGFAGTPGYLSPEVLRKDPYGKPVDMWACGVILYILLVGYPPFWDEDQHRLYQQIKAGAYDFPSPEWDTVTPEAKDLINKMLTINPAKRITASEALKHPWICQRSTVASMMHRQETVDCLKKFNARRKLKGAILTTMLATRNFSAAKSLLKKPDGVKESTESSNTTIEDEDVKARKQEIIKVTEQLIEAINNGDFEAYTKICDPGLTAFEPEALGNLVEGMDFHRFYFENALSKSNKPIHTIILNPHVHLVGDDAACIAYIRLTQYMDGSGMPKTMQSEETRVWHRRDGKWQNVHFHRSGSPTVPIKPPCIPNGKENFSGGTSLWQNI
The target of assay [7] is Tyrosine-protein kinase Blk (Homo sapiens) (UniProt P51451). Kind of assay: Selectivity interaction (KinomeScan (DiscoverX)) EUB0001049a BLK. The note with it: at 1 µM.
Tyrosine-protein kinase Blk (Homo sapiens), sequence (P51451 2-505 limits assumed): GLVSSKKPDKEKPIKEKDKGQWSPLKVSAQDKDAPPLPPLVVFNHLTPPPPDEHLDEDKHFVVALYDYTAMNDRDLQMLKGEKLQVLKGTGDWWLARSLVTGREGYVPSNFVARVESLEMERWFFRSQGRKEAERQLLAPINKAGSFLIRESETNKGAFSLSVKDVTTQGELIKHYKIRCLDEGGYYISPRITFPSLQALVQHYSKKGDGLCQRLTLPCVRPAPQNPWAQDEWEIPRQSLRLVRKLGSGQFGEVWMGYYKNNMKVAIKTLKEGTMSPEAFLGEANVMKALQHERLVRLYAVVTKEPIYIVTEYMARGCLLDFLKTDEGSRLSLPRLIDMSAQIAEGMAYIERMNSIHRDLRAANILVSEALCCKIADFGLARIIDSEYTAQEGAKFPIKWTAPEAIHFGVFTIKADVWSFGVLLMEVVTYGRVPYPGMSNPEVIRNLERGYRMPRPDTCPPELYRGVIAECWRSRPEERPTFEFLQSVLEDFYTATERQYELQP
Assay [8] addresses Mitogen-activated protein kinase 14 (Homo sapiens, UniProt Q16539). Kind of assay: Selectivity interaction (ProQinase) EUB0000171b MAPK14.
In assay [9] the target is SWI/SNF-related matrix-associated actin-dependent regulator of chromatin subfamily A member 4 (Homo sapiens) (UniProt P51532). In words: Selectivity interaction (Human bromodomain panel (DSF assay)) EUB0000233b SMARCA4. A general note: Differential scanning fluorimetry follows unfolding on heating by fluorescence.
For assay [10], the target named is Adenosine receptor A2a (Homo sapiens, UniProt P29274). In words: Selectivity interaction (Panel of kinases, GPCRs, ion channels and transporters (enzymatic assay)) EUB0000223bCl ADORA2A.
Adenosine receptor A2a, sequence (P29274 whole entry): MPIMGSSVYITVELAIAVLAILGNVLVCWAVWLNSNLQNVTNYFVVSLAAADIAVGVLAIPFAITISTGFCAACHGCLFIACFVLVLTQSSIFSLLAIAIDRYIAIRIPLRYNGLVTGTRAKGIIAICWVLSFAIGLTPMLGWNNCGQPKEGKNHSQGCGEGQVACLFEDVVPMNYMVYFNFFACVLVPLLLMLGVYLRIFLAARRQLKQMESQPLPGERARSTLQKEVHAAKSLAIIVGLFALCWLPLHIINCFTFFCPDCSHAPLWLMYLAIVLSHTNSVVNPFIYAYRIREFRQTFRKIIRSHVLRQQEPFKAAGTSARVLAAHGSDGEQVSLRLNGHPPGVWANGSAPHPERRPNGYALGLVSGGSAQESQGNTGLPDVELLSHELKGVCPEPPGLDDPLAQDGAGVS

A value given as a limit tells only on which side of the number the result lay.

Mitogen-activated protein kinase 14, sequence (Q16539 whole entry): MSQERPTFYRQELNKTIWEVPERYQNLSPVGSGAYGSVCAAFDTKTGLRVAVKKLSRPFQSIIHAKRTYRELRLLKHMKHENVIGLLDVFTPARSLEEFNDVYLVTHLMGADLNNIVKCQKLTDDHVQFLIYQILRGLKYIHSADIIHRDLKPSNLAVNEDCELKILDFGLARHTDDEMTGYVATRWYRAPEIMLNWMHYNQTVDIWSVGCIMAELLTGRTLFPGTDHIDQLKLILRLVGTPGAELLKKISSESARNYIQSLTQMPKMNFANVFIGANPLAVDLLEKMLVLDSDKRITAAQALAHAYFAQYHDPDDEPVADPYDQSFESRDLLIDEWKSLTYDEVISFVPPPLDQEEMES
Serine/threonine-protein kinase MRCK beta (Homo sapiens), sequence (Q9Y5S2 whole entry): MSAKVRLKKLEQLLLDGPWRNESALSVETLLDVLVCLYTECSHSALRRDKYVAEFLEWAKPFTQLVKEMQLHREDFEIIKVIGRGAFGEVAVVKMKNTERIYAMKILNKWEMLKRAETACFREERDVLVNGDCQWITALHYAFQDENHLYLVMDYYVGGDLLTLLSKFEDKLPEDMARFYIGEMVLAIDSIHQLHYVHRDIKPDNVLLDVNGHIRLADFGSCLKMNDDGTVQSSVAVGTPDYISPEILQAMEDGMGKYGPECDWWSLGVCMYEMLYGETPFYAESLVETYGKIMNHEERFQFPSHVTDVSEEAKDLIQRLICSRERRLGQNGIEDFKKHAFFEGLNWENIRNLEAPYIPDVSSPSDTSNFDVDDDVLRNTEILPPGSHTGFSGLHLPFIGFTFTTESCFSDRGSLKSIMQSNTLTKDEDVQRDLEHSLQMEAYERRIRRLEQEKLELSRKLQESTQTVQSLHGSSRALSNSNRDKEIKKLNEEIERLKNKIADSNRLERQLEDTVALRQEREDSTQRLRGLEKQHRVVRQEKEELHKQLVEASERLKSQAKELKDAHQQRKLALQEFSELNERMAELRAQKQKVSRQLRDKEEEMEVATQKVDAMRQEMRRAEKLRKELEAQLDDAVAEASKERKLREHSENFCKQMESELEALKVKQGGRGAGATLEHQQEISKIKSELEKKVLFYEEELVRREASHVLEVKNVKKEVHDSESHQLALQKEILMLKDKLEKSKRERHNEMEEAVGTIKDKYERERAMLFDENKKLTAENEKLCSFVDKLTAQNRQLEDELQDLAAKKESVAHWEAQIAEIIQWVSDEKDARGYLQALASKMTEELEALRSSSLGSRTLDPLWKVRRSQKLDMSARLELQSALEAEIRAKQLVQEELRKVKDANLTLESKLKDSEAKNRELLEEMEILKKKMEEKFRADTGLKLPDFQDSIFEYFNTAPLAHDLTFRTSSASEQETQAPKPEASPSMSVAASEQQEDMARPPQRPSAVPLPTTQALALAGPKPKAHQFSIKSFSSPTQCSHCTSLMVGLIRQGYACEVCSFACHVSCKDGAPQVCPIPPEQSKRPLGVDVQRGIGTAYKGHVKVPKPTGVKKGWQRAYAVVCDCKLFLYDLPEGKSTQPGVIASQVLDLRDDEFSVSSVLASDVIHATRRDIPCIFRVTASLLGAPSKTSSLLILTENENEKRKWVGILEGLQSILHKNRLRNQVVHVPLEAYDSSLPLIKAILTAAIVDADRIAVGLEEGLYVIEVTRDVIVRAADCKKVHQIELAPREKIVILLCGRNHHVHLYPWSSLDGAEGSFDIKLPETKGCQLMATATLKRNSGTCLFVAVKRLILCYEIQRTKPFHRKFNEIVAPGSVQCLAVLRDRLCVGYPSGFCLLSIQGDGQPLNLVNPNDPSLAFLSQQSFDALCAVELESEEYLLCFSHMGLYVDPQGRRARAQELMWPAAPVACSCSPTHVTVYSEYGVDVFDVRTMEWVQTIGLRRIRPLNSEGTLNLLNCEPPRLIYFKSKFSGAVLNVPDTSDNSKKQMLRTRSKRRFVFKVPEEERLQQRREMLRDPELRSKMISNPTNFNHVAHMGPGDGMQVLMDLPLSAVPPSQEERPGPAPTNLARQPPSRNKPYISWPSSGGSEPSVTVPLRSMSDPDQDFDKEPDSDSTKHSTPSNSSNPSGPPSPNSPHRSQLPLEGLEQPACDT
Calcium/calmodulin-dependent protein kinase kinase 1 (Homo sapiens), sequence (Q8N5S9 whole entry, looked up): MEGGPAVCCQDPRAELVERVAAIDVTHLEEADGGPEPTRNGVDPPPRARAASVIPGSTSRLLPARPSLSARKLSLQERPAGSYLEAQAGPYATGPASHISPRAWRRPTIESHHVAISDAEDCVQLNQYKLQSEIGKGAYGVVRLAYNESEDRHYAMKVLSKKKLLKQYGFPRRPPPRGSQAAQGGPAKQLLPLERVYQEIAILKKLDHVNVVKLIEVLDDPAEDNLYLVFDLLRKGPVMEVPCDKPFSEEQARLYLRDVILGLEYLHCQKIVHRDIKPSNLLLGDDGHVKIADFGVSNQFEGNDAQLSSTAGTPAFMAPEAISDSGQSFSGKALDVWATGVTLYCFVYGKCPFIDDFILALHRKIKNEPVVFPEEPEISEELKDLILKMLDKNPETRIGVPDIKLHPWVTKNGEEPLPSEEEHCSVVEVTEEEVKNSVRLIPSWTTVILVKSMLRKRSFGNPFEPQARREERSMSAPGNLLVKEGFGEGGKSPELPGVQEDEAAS
Tyrosine-protein kinase CSK (Homo sapiens), sequence (P41240 2-450 limits assumed): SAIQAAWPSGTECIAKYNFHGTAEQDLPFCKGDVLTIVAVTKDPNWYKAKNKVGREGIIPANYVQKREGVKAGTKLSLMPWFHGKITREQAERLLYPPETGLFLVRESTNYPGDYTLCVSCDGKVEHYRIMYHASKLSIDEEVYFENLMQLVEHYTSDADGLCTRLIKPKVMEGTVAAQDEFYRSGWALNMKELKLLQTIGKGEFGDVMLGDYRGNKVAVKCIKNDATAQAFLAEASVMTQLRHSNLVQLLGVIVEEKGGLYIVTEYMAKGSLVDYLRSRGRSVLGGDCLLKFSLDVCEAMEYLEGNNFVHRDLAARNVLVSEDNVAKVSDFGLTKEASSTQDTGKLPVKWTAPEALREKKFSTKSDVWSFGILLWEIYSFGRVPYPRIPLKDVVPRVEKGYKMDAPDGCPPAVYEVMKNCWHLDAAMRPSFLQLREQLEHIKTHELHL

For `CN(C)C/C=C/C(=O)Nc1ccc(C(=O)N2CCCC(Nc3ncc(Cl)c(-c4c[nH]c5ccccc45)n3)C2)cc1` (stereo unspecified), the % of control in assay [1] worked out at 100%.

Regarding `COc1cc(N(C)c2ccnc3ccc(C(F)(F)F)cc23)cc(OC)c1OC`, the % binding in [2] turned out to be 100%.

Regarding `CN(C)CCOc1ccc(-c2nc(-c3ccncc3)c(-c3ccc4c(c3)CC/C4=N\O)[nH]2)cc1`, the % of control in [3] is 76%.

As to `N#Cc1cccc(-c2c[nH]c3ncnc(N4CCOCC4)c23)c1`, in assay [4], the % of inhibition was -45%.

Take `CC[C@@H]1[C@H](F)C(=O)N[C@@H]1COc1nccc2cc(C(N)=O)c(OC)cc12` [ZIMLOVISERTIB]: the % of inhibition in assay [5] worked out at 2.23%.

As for `CCN(CC)CCCCNc1ncc2cc(-c3cc(OC)cc(OC)c3)c(NC(=O)NC(C)(C)C)nc2n1`, in assay [6], the % of control worked out at 100%.

Consider `COc1cc(Nc2nc(C)cc(-c3cnn4nc(OC)ccc34)n2)cc(C(F)(F)F)c1`, for which the % of control in [7] came to 100%.

For the compound `C=CC(=O)Nc1cccc(C(=O)Nc2ccc(Nc3cc(-c4[nH]c(SC)nc4C)ccn3)cc2)c1`, the results for the % of control in [8] (at 1 µM) and in [8] (at 5 µM) were 90% and 67%, respectively.

In assay [9], `CN(C)CCCOc1ccc(-c2cc(NCCCn3cccn3)nc(S(C)(=O)=O)n2)cc1` displayed a dTM of under 2 K.

In turn, `COc1cc(C(=O)N2CC[C@@H](O)[C@@H](N)C2)cc2nc(-c3cc4ccccc4n3CC3CC3)n(C)c12` showed a pXC50 in assay [10] of under 4.5 M.
